In the supplement of paper PMC11208160:

test: recombinant UMI read abundance after kanamycin selection (control-corrected) (log10(CPM+1)); higher = more efficient recombination; extreme values may be limits of the assay; sequences stand for … in AGTGCAGAGAAAATCGGCCAGTTTTCTCTGCCTGCAGTCCGCATGCCGTGGGACCCCTTGGGTTCTAACCTGTTGCCTAGATTTATGCAGCGGACTGCCTTTCTCCCAAAGTGATAAACCGG…AGGTTGGTTTCACT; site = the 11-nt donor
Procedure, shortened: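 Two replicates each of selected and unselected plating were used in this pooled Escherichia coli screen of donor and donor-binding-loop pairs for the IS621 bridge recombinase. Selection was with IPTG (0.07 mM) and kanamycin. Counts of recombinant UMIs, amplified across the donor–target junction, were converted to CPM, averaged, scaled by control-derived factors and reported as log10(CPM+1).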
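Note: IS621 bridge recombinase in Escherichia coli cells against a fixed T5 target plasmid.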

| Sequence | recombinant UMI read abundance (log10) |
| --- | --- |
| CCGTAGCCATGGACCGGTTTTCCCGGTAATCCGTATTTGCC (site CCCTAGCCTGG) | 0 |
| TTGCAGCCATGGACCGGTTTTCCCGGTAATCCGTATTTGCT (site TTGCAGCCTAG) | 0.0502 |
| CGTTTGGCATGGACCGGTTTTCCCGGTAATCCGTATTTGCC (site CGTTTGGCTGG) | 0 |
| ACGATAGCATGGACCGGTTTTCCCGGTAATCCGTATTTGTC (site ACGATAGCTGA) | 2.92 |
| TCAGGTGCATGGACCGGTTTTCCCGGTAATCCGTATTTGAT (site GCAGGTGCTAT) | 0.018 |
| CAGTTAGCATGGACCGGTTTTCCCGGTAATCCGTATTTGTG (site CGGTTAGCTCA) | 0.347 |
| GAGCACGCATGGACCGGTTTTCCCGGTAATCCGTATTTGGG (site TAGCACGCTCC) | 0.517 |
| CAGGTTGCATGGACCGGTTTTCCCGGTAATCCGTATTTGGC (site CAGGTTGCTGC) | 2.08 |
| CCTAATACATGGACCGGTTTTCCCGGTAATCCGTATTTGGC (site CCTAATACTGC) | 0 |
| ACTAAGTCATGGACCGGTTTTCCCGGTAATCCGTATTTGAG (site ACTAAGTCTCT) | 2.46 |
| CGGGAACCATGGACCGGTTTTCCCGGTAATCCGTATTTGAT (site CGGTAACCTAT) | 0 |
| CGGTAACCATGGACCGGTTTTCCCGGTAATCCGTATTTGAT (site CGGCAACCTAT) | 0.00415 |
| CACTTGGCATGGACCGGTTTTCCCGGTAATCCGTATTTGAA (site CACTTGGCTTA) | 0.431 |
| CTAATTACATGGACCGGTTTTCCCGGTAATCCGTATTTGCA (site CTAATTACTTG) | 2.07 |
| TACTTGCCATGGACCGGTTTTCCCGGTAATCCGTATTTGCT (site TACTTGGCTAG) | 0.00743 |
| CGTGGGACATGGACCGGTTTTCCCGGTAATCCGTATTTGTT (site CGTGGAACTAA) | 1.86 |
| TCTGCAACATGGACCGGTTTTCCCGGTAATCCGTATTTGAA (site TCTGCAACTTT) | 0.00363 |
| TAAGTGTCATGGACCGGTTTTCCCGGTAATCCGTATTTGCA (site TAAGTGTCTTG) | 3.32 |
| ATCCAAGCATGGACCGGTTTTCCCGGTAATCCGTATTTGAG (site ATCCAAGCTCC) | 0.0127 |
| TACTTGACATGGACCGGTTTTCCCGGTAATCCGTATTTGCA (site TACTTGACTGG) | 0 |
| TACTGAGCATGGACCGGTTTTCCCGGTAATCCGTATTTGGG (site TAATGAGCTCC) | 0.0256 |
| TCTTTAGCATGGACCGGTTTTCCCGGTAATCCGTATTTGCA (site TCTTTAGCTTG) | 0 |
| TTTGCGGCATGGACCGGTTTTCCCGGTAATCCGTATTTGCT (site TTAGCGGCTAG) | 0.486 |
| AAATATTCATGGACCGGTTTTCCCGGTAATCCGTATTTGGG (site AAATATTCTCC) | 0.372 |
| GAGCTCACATGGACCGGTTTTCCCGGTAATCCGTATTTGAT (site GAGGTCACTAT) | 0.0104 |

| Sequence | recombinant UMI read abundance (log10) |
| --- | --- |
| CACGATTCATGGACCGGTTTTCCCGGTAATCCGTATTTGCC (site CACGATTCTGG) | 2.11 |
| GAGCTCACATGGACCGGTTTTCCCGGTAATCCGTATTTGAT (site GAGCACACTAT) | 0.159 |
| CCAGGTCCATGGACCGGTTTTCCCGGTAATCCGTATTTGAT (site CCAGGTCCTAT) | 0.341 |
| CTACAAACATGGACCGGTTTTCCCGGTAATCCGTATTTGGA (site CTACAAACTTC) | 1.28 |
| TCTGCAGCATGGACCGGTTTTCCCGGTAATCCGTATTTGAA (site TCTGCAGCTTT) | 0.00333 |
| CGATCGACATGGACCGGTTTTCCCGGTAATCCGTATTTGCT (site CGATCGACTAA) | 0.3 |
| ATCTATGCATGGACCGGTTTTCCCGGTAATCCGTATTTGAC (site ATCTATGCTGT) | 2.57 |
| ACAGTTTCATGGACCGGTTTTCCCGGTAATCCGTATTTGTA (site ACAGTATCTTG) | 1.19 |
| TATAGTCCATGGACCGGTTTTCCCGGTAATCCGTATTTGTA (site TACAGTCCTTA) | 0.121 |
| GTGAGAACATGGACCGGTTTTCCCGGTAATCCGTATTTGGC (site GTTAGAACTGC) | 0 |
| CTAGTATCATGGACCGGTTTTCCCGGTAATCCGTATTTGAC (site CCAGTATCTTT) | 0.412 |
| GGATGATCATGGACCGGTTTTCCCGGTAATCCGTATTTGCT (site CGATCATCTAG) | 0 |
| CTTGTCTCATGGACCGGTTTTCCCGGTAATCCGTATTTGTA (site CTTCTCTCTTA) | 0.856 |
| GTTCGAGCATGGACCGGTTTTCCCGGTAATCCGTATTTGCG (site GTTCGAGCTTG) | 1.23 |
| CCCTTCACATGGACCGGTTTTCCCGGTAATCCGTATTTGGG (site CCCTTCCCTCC) | 0.0128 |
| AACGTCTCATGGACCGGTTTTCCCGGTAATCCGTATTTGTC (site AACGTCTCTGA) | 3.05 |
| ATGTAGGCATGGACCGGTTTTCCCGGTAATCCGTATTTGCC (site ATGTAGGCTGT) | 1.7 |
| CGTTAGCCATGGACCGGTTTTCCCGGTAATCCGTATTTGAG (site CGTTAGGCTCT) | 0.00758 |
| GTTCGAGCATGGACCGGTTTTCCCGGTAATCCGTATTTGTA (site GTTCGAGCTTA) | 1.9 |
| ATCCAAGCATGGACCGGTTTTCCCGGTAATCCGTATTTGAG (site ATCCTAGCTCT) | 0.357 |
| CCTTATACATGGACCGGTTTTCCCGGTAATCCGTATTTGGC (site CCTCATACTGC) | 0.021 |
| CGGTATCCATGGACCGGTTTTCCCGGTAATCCGTATTTGTT (site CGGAATCCTAA) | 0 |
| GGTCATTCATGGACCGGTTTTCCCGGTAATCCGTATTTGTG (site GGTCATTCTCA) | 1.05 |
| TGACTGTCATGGACCGGTTTTCCCGGTAATCCGTATTTGAT (site TGACTGTCTAT) | 0.245 |
| AGCGTAGCATGGACCGGTTTTCCCGGTAATCCGTATTTGCA (site AGCGTAGCTTG) | 2.87 |

| Sequence | recombinant UMI read abundance (log10) |
| --- | --- |
| GTGGAGGCATGGACCGGTTTTCCCGGTAATCCGTATTTGCG (site GTGGAGGCTCG) | 2.28 |
| CGATCAACATGGACCGGTTTTCCCGGTAATCCGTATTTGGT (site CGATCAACTAC) | 0.796 |
| CTAGTATCATGGACCGGTTTTCCCGGTAATCCGTATTTGAC (site CTAGGATCTGT) | 0.927 |
| CTAGTATCATGGACCGGTTTTCCCGGTAATCCGTATTTGAC (site CTAGTAGCTTT) | 0.0305 |
| CGGGAACCATGGACCGGTTTTCCCGGTAATCCGTATTTGAT (site CGTGAACCTAT) | 0 |
| GGCCGCCCATGGACCGGTTTTCCCGGTAATCCGTATTTGTT (site GGCCGCCCTAA) | 0.00876 |
| CAAGAGCCATGGACCGGTTTTCCCGGTAATCCGTATTTGGG (site CAAGAGCCTCC) | 0.00368 |
| TTAGCAGCATGGACCGGTTTTCCCGGTAATCCGTATTTGTG (site TTAGCCGCTCA) | 0.0121 |
| GGATTGACATGGACCGGTTTTCCCGGTAATCCGTATTTGCC (site GGATGGACTGG) | 0 |
| CTTGAAACATGGACCGGTTTTCCCGGTAATCCGTATTTGCA (site CTGGAAACTTG) | 0.538 |
| CCGTCGACATGGACCGGTTTTCCCGGTAATCCGTATTTGGG (site CTGTCGACTCC) | 0 |
| ATCCAAGCATGGACCGGTTTTCCCGGTAATCCGTATTTGAG (site ATCCAAGCTCA) | 0.209 |
| CGTGGAACATGGACCGGTTTTCCCGGTAATCCGTATTTGTT (site CGTGGAACTGA) | 0.938 |
| AGGCGTGCATGGACCGGTTTTCCCGGTAATCCGTATTTGGA (site AGGCGTGCTTC) | 0.745 |
| CTAGTATCATGGACCGGTTTTCCCGGTAATCCGTATTTGAC (site CTAGTAGCTGG) | 0 |
| TCAGTATCATGGACCGGTTTTCCCGGTAATCCGTATTTGCA (site ACAGTATCTTG) | 1.93 |
| GTTAGAGCATGGACCGGTTTTCCCGGTAATCCGTATTTGCA (site GTTTGAGCTTG) | 1.08 |
| TTTGTAGCATGGACCGGTTTTCCCGGTAATCCGTATTTGGA (site TTTGTAGCTTC) | 0.00646 |
| CCCATATCATGGACCGGTTTTCCCGGTAATCCGTATTTGAC (site CCCATATCTGC) | 0 |
| GTTGTTCCATGGACCGGTTTTCCCGGTAATCCGTATTTGGT (site GTTGTCCCTAC) | 0.00355 |
| ATCCAAGCATGGACCGGTTTTCCCGGTAATCCGTATTTGAT (site ATCCAAGCTGT) | 1.37 |
| CTAGTATCATGGACCGGTTTTCCCGGTAATCCGTATTTGAC (site CCGGTATCTGT) | 0.281 |
| CTCATATCATGGACCGGTTTTCCCGGTAATCCGTATTTGTC (site CCCATATCTGA) | 0.718 |
| AATGTAACATGGACCGGTTTTCCCGGTAATCCGTATTTGCC (site AATGTAACTCG) | 0 |
| CCATTCCCATGGACCGGTTTTCCCGGTAATCCGTATTTGCT (site CAATTCCCTAG) | 0 |
